Values of other authors in patent US20150250887A1, “METHOD OF PREPARING RESIN TINCTURES” (JALEVA PHARMACEUTICALS, LLC, priority 2012, published 2015).
Like-named read-outs stand apart in the source and are kept apart here.

Assays:
[1] = tested on: skin

| SMILES | log D (pH about 7.4) | further results |
| --- | --- | --- |
| CC(=O)O.CC(=O)O.NC(=N\CCCCCC/N=C(N)/N=C(\N)Nc1ccc(Cl)cc1)/N=C(\N)Nc1ccc(Cl)cc1 [chlorhexidine acetate] |  | skin irritant properties [1]: strong skin irritant |
| N=C(NCCCCCCNC(=N)NC(=N)Nc1ccc(Cl)cc1)NC(=N)Nc1ccc(Cl)cc1.O=C(O)[C@H](O)[C@@H](O)[C@H](O)[C@H](O)CO.O=C(O)[C@H](O)[C@@H](O)[C@H](O)[C@H](O)CO [chlorhexidine gluconate] |  | skin irritant properties [1]: does not exhibit as strong irritant properties |
| O=C(O)Cc1ccccc1Nc1c(Cl)cccc1Cl [diclofenac] | 1.44 |  |
| CNS(=O)(=O)CCc1ccc2[nH]cc(C3CCN(C)CC3)c2c1 [naratriptan] | −0.85 |  |
| CN1CCCC1c1cccnc1 (stereo not shown) [nicotine] |  | log D (pH 7.4): −0.62 |
| Cc1nccn1CC1CCc2c(c3ccccc3n2C)C1=O (stereo not shown) [ondansetron] | 1.2 |  |
| CCCc1nn(C)c2c(=O)[nH]c(-c3cc(S(=O)(=O)N4CCN(C)CC4)ccc3OCC)nc12 [sildenafil] | 2.26 |  |
| C[C@]12CC[C@H]3[C@@H](CCC4=CC(=O)CC[C@@]43C)[C@@H]1CC[C@@H]2O [testosterone] |  | log D (pH 7.4): 3.18 |
| CC1=C(/C=C/C(C)=C/C=C/C(C)=C/C(=O)O)C(C)(C)CCC1 [tretinoin] | 4.19 |  |
| CCCc1nc(C)c2c(=O)[nH]c(-c3cc(S(=O)(=O)N4CCN(CC)CC4)ccc3OCC)nn12 [vardenafil] | 3.71 |  |
